Source: ChEMBL document CHEMBL1938263, “Design, synthesis, biological evaluation, and comparative Cox1 and Cox2 docking of p-substituted benzylidenamino phenyl esters of ibuprofenic and mefenamic acids” (Bioorg Med Chem, 2012)

Legend:
Rattus norvegicus [1] = assay: Antiinflammatory activity in Wistar CF rat assessed as inhibition of carrageenan-induced paw oedema at 100 mg/kg, po administered 1 hr prior to carrageenan-challenge after 4 hrs (reference value: 78.14 +/- 7.1 %); assay type: functional
Mus musculus [2] = assay: Analgesic activity in mouse assessed as latency time of jumping as nociceptive response at 250 mg/kg, po after 0.5 hrs by hot plate test (reference value: 11.16 +/- 1.66 sec); assay type: functional
Mus musculus [3] = assay: Analgesic activity in mouse assessed as latency time of jumping as nociceptive response at 250 mg/kg, po after 1 hr by hot plate test (reference value: 14.3 +/- 0.99 sec); assay type: functional
Mus musculus [4] = assay: Analgesic activity in mouse assessed as latency time of jumping as nociceptive response at 250 mg/kg, po after 1.5 hrs by hot plate test (reference value: 16.8 +/- 2.12 sec); assay type: functional
Rattus norvegicus [5] = assay: Ulcerogenic activity in fasted Wistar albino rat assessed as ulcer index at 100 mg/kg, po after 5 hrs; assay type: toxicity, organism-based; set-up: dose 100 mg/kg, route oral; details: in vivo
Rattus norvegicus [6] = assay: Ulcerogenic activity in fasted Wistar albino rat assessed as severity of ulcer at 100 mg/kg, po after 5 hrs; assay type: toxicity, organism-based; set-up: dose 100 mg/kg, route oral; details: in vivo
Mus musculus [7] = assay: Analgesic activity in mouse assessed as latency time of paw licking as nociceptive response at 250 mg/kg, po after 0.5 hrs by hot plate test (reference value: 11.16 +/- 1.66 sec); assay type: functional
Mus musculus [8] = assay: Analgesic activity in mouse assessed as latency time of paw licking as nociceptive response at 250 mg/kg, po after 1 hr by hot plate test (reference value: 14.3 +/- 0.99 sec); assay type: functional
Mus musculus [9] = assay: Analgesic activity in mouse assessed as latency time of paw licking as nociceptive response at 250 mg/kg, po after 1.5 hrs by hot plate test (reference value: 16.8 +/- 2.12 sec); assay type: functional
Rattus norvegicus [10] = assay: Antiinflammatory activity in Wistar CF rat assessed as inhibition of carrageenan-induced paw oedema at 100 mg/kg, po administered 1 hr prior to carrageenan-challenge after 1 hr (reference value: 55.7 +/- […] %); assay type: functional
Rattus norvegicus [11] = assay: Antiinflammatory activity in Wistar CF rat assessed as inhibition of carrageenan-induced paw oedema at 100 mg/kg, po administered 1 hr prior to carrageenan-challenge after 2 hrs (reference value: 68.6 +/- 7.14 %); assay type: functional
Rattus norvegicus [12] = assay: Antiinflammatory activity in Wistar CF rat assessed as inhibition of carrageenan-induced paw oedema at 100 mg/kg, po administered 1 hr prior to carrageenan-challenge after 3 hrs (reference value: 74.63 +/- 7.13 %); assay type: functional

`CC(C)Cc1ccc(C(C)C(=O)Oc2ccc(/N=C/c3ccc(N(C)C)cc3)cc2)cc1` (stereo not drawn) showed an inhibition in vivo at 100 mg/kg (Rattus norvegicus [1]) of 107%, a Time (Mus musculus [2]) of 22.22 s and a Time (Mus musculus [3]) of 32.14 s. For the same molecule, the Time (Mus musculus [4]) was 23 s, the UI (Rattus norvegicus [5]) was 0 and the Activity (Rattus norvegicus [6]) was “Non-toxic”. The Time (Mus musculus [7]) was 22.22 s, the Time (Mus musculus [8]) was 32.14 s and the Time (Mus musculus [9]) was 23 s. For the same molecule, the inhibition in vivo at 100 mg/kg (Rattus norvegicus [10]) was 71.7%, the inhibition in vivo at 100 mg/kg (Rattus norvegicus [11]) was 96.1% and the inhibition in vivo at 100 mg/kg (Rattus norvegicus [12]) was 104%.

For `Cc1cccc(Nc2ccccc2C(=O)Oc2ccc(/N=C/c3ccc(Br)cc3)cc2)c1C`, the inhibition in vivo at 100 mg/kg (Rattus norvegicus [1]) was 51.7%, the Time (Mus musculus [2]) was 20.72 s and the Time (Mus musculus [3]) was 21.22 s. The Time (Mus musculus [4]) was 19.38 s, the UI (Rattus norvegicus [5]) was 0 and the Activity (Rattus norvegicus [6]) was “Non-toxic”. For the same molecule, the Time (Mus musculus [7]) was 20.72 s, the Time (Mus musculus [8]) was 21.22 s and the Time (Mus musculus [9]) was 19.38 s. For the same molecule, the inhibition in vivo at 100 mg/kg (Rattus norvegicus [10]) was 32%, the inhibition in vivo at 100 mg/kg (Rattus norvegicus [11]) was 38.5% and the inhibition in vivo at 100 mg/kg (Rattus norvegicus [12]) was 46.5%.

In the case of `CC(C)Cc1ccc(C(C)C(=O)Oc2ccc(/N=C/c3ccc([N+](=O)[O-])cc3)cc2)cc1` (stereo not drawn), the inhibition in vivo at 100 mg/kg (Rattus norvegicus [1]) is reported as 53.8%, the Time (Mus musculus [2]) is reported as 23.52 s and the Time (Mus musculus [3]) is reported as 34.62 s. For the same molecule, the Time (Mus musculus [4]) was 24.98 s, the UI (Rattus norvegicus [5]) was 0 and the Activity (Rattus norvegicus [6]) was “Non-toxic”. For the same molecule, the Time (Mus musculus [7]) was 23.52 s, the Time (Mus musculus [8]) was 34.62 s and the Time (Mus musculus [9]) was 24.98 s. It also gave an inhibition in vivo at 100 mg/kg (Rattus norvegicus [10]) of 29.9%, an inhibition in vivo at 100 mg/kg (Rattus norvegicus [11]) of 44.4% and an inhibition in vivo at 100 mg/kg (Rattus norvegicus [12]) of 50.3%.

Work on `CC(C)Cc1ccc(C(C)C(=O)O)cc1` (racemic) [IBUPROFEN] yielded an inhibition in vivo at 100 mg/kg (Rattus norvegicus [1]) of 44%, a Time (Mus musculus [2]) of 17.84 s and a Time (Mus musculus [3]) of 16.1 s. The Time (Mus musculus [4]) was 19 s, the UI (Rattus norvegicus [5]) was 4.03 and the Activity (Rattus norvegicus [6]) was “Toxic”. For the same molecule, the Time (Mus musculus [7]) was 17.84 s, the Time (Mus musculus [8]) was 16.1 s and the Time (Mus musculus [9]) was 19 s. It also gave an inhibition in vivo at 100 mg/kg (Rattus norvegicus [10]) of 30%, an inhibition in vivo at 100 mg/kg (Rattus norvegicus [11]) of 36.2% and an inhibition in vivo at 100 mg/kg (Rattus norvegicus [12]) of 41.8%.

In the case of `Cc1cccc(Nc2ccccc2C(=O)Oc2ccc(/N=C/c3ccc(N(C)C)cc3)cc2)c1C`, the inhibition in vivo at 100 mg/kg (Rattus norvegicus [1]) is reported as 63.5%, the Time (Mus musculus [2]) is reported as 23.16 s and the Time (Mus musculus [3]) is reported as 24.4 s. The Time (Mus musculus [4]) was 15.96 s, the UI (Rattus norvegicus [5]) was 0 and the Activity (Rattus norvegicus [6]) was “Non-toxic”. The Time (Mus musculus [7]) was 23.16 s, the Time (Mus musculus [8]) was 24.4 s and the Time (Mus musculus [9]) was 15.96 s. It also gave an inhibition in vivo at 100 mg/kg (Rattus norvegicus [10]) of 41.6%, an inhibition in vivo at 100 mg/kg (Rattus norvegicus [11]) of 45.6% and an inhibition in vivo at 100 mg/kg (Rattus norvegicus [12]) of 53.4%.

`Cc1cccc(Nc2ccccc2C(=O)Oc2ccc(/N=C/c3ccc([N+](=O)[O-])cc3)cc2)c1C` gave an inhibition in vivo at 100 mg/kg (Rattus norvegicus [1]) of 52.5%, a Time (Mus musculus [2]) of 18.04 s and a Time (Mus musculus [3]) of 25.98 s. The Time (Mus musculus [4]) was 20.82 s, the UI (Rattus norvegicus [5]) was 0 and the Activity (Rattus norvegicus [6]) was “Non-toxic”. The Time (Mus musculus [7]) was 18.04 s, the Time (Mus musculus [8]) was 25.98 s and the Time (Mus musculus [9]) was 20.82 s. The inhibition in vivo at 100 mg/kg (Rattus norvegicus [10]) was 36.9%, the inhibition in vivo at 100 mg/kg (Rattus norvegicus [11]) was 41.1% and the inhibition in vivo at 100 mg/kg (Rattus norvegicus [12]) was 43.8%.

`CC(C)Cc1ccc(C(C)C(=O)Oc2ccc(/N=C/c3ccc(Br)cc3)cc2)cc1` (stereo not drawn) was tested, and the inhibition in vivo at 100 mg/kg (Rattus norvegicus [1]) was 49.3%, the Time (Mus musculus [2]) was 19.62 s and the Time (Mus musculus [3]) was 33.44 s. The Time (Mus musculus [4]) was 26.12 s, the UI (Rattus norvegicus [5]) was 0 and the Activity (Rattus norvegicus [6]) was “Non-toxic”. It also gave a Time (Mus musculus [7]) of 19.62 s, a Time (Mus musculus [8]) of 33.44 s and a Time (Mus musculus [9]) of 26.12 s. It also gave an inhibition in vivo at 100 mg/kg (Rattus norvegicus [10]) of 36.5%, an inhibition in vivo at 100 mg/kg (Rattus norvegicus [11]) of 40.6% and an inhibition in vivo at 100 mg/kg (Rattus norvegicus [12]) of 44.7%.

Molecule `COc1ccc(/C=N/c2ccc(OC(=O)c3ccccc3Nc3cccc(C)c3C)cc2)cc1` has an inhibition in vivo at 100 mg/kg (Rattus norvegicus [1]) of 62.1%, a Time (Mus musculus [2]) of 21.68 s and a Time (Mus musculus [3]) of 25.08 s. For the same molecule, the Time (Mus musculus [4]) was 18.46 s, the UI (Rattus norvegicus [5]) was 0 and the Activity (Rattus norvegicus [6]) was “Non-toxic”. For the same molecule, the Time (Mus musculus [7]) was 21.68 s, the Time (Mus musculus [8]) was 25.08 s and the Time (Mus musculus [9]) was 18.46 s. For the same molecule, the inhibition in vivo at 100 mg/kg (Rattus norvegicus [10]) was 35.2%, the inhibition in vivo at 100 mg/kg (Rattus norvegicus [11]) was 49.4% and the inhibition in vivo at 100 mg/kg (Rattus norvegicus [12]) was 57%.

`COc1ccc(/C=N/c2ccc(OC(=O)C(C)c3ccc(CC(C)C)cc3)cc2)cc1` (stereo not drawn) was tested, and the inhibition in vivo at 100 mg/kg (Rattus norvegicus [1]) was 64.7%, the Time (Mus musculus [2]) was 20.18 s and the Time (Mus musculus [3]) was 35.14 s. For the same molecule, the Time (Mus musculus [4]) was 28.1 s, the UI (Rattus norvegicus [5]) was 0 and the Activity (Rattus norvegicus [6]) was “Non-toxic”. The Time (Mus musculus [7]) was 20.18 s, the Time (Mus musculus [8]) was 35.14 s and the Time (Mus musculus [9]) was 28.1 s. The inhibition in vivo at 100 mg/kg (Rattus norvegicus [10]) was 54%, the inhibition in vivo at 100 mg/kg (Rattus norvegicus [11]) was 56.2% and the inhibition in vivo at 100 mg/kg (Rattus norvegicus [12]) was 61.2%.
